{"source": "patent US20250339396A1", "about": "(COSMAS THERAPEUTICS DEVELOPMENT INC., priority 2021, published 2025)", "tested_on": "neuropathic (SNI) rats", "experiment": "Sleep restoration in neuropathic rats, 24 h EEG/EMG recordings (REM, NREM, wakefulness, sleep fragmentation index)", "assay_type": "in vivo, rat", "conditions": "for NREM 24 h, mean difference (Bonferroni's multiple comparison test) / REM 24 h, mean difference (Bonferroni's multiple comparison test) / Wake 24 h, mean difference (Bonferroni's multiple comparison test) / SFI (sleep fragmentation index), mean difference (Bonferroni's multiple comparison test): Prodrug D 150 mg/kg, neuropathic (SNI) rats; for NREM 24 h, mean difference (Bonferroni's multiple comparison test) / REM 24 h, mean difference (Bonferroni's multiple comparison test) / Wake 24 h, mean difference (Bonferroni's multiple comparison test): 24 h EEG/EMG; for SFI (sleep fragmentation index), mean difference (Bonferroni's multiple comparison test): awakenings in 24 h divided by total sleep time in hours", "experimental": "Wistar rats weighted 120 g at the beginning of the experiment were housed under standard conditions, at a constant temperature of 22° C., with food and water provided ad libitum and under a 12 h light/dark cycle (lights on at 7:00 AM; lights off at 7:00 PM). All experimental procedures and surgeries were approved by the Animal Ethics Committee of local institutional committee for animal use and care (McGill University, Canada), following the Canadian Institute of Health Research for animal care and scientific use.\nOnly animals presenting allodynia (mean 2.5 gr) 14 days after SNI surgery, were then implanted EEG/EMG electrode, for 24 hours electrical recording and non-allodynic rat were excluded.\nSham and neuropathic rats were deeply anesthetized with isoflurane (5% for induction, 2-3% for maintenance) and placed in a stereotaxic frame. For EEG monitoring, three stainless-steel epidural electrodes were positioned through 1.5 mm burr holes at-2 mm anteroposterior (AP) and −3 mm lateral (L), −4.5 mm AP and +3 mm L, −7 mm AP and […] according to bregma (Paxinos and Watson 2006). For the EMG signal, three flexible stainless-steel wires were implanted into the neck muscle. Then, wires and connectors were fixed to the skull using dental acrylic (Coltene/Whaledent Inc. USA). Rats were given 5 days to recovery (Ochoa-Sanchez, et al., 2011).\n24-h after electrode implantation surgery, rats were placed for habituation in the recording room from 12:00 PM to 9:00 PM on a daily basis. During this time, the rats were placed in the recording chambers and connected to a flexible 6-flat cable (3M Scotchflex®), in a freely moving manner. No recordings were performed, but tolerance to the cable, and sleep behavior were observed. The day 5 of habituation, recordings were performed for 24 h, starting at 6:00 PM.\nProdrug D (150 mg/kg) was dissolved in 40% PEG 400 and 60% water (about 2.5 mL average for rats by gavage) and was administered at 6 am and 6 pm.\nThe amplification of EEG/EMG signals were at the total gain of 10.000. EEG/EMG signals were digitalized by a CED 1401 interface system, processed on-line, and analyzed off-line by Spike 2 software, in parallel with analog-to-digital samplings of amplified (Grass, P55) polygraphic signals (EEG; sampling rate, 100 or 200 Hz). Consecutive 10-s epochs were subjected to a Fast Fourier Transform (FFT) and EEG power spectra density was computed in the frequency range of 0-64 Hz (Ochoa-Sanchez, R et al., 2011).\nAnalysis was made offline using the spike 2 software (Cambridge). Three classical sleep stages are identified using EEG and EMG recordings. Wakefulness was determined by a sustained activity of EMG and low amplitude and high frequency of EEG. NREM (non-rapid eyes movement) sleep was characterized by high amplitude […] (1-4 Hz) and low muscle activity. REM (rapid eyes movement) sleep was marked with muscle atonia as observed in EMG and low amplitude […] in EEG (6-11). Only period longer than 10 seconds was marked for further analysis of awake, REM and NREM sleep, in order to eliminate the transitional period such as drowsiness (Ochoa-Sanchez, R et al., 2011).\nGiven the changes induced by the neuropathy on sleep parameters, we then calculate the sleep fragmentation index (SFI). SFI was calculated as the total number of awakenings in 24 h divided by the total sleep time in hours.\nData analysis was done using GraphPad Prism statistical software version 5.04 […]. One-way ANOVA was performed for 24 h time of REM, NREM and wakefulness as well as sleep fragmentation index. Post-hoc analyses were performed using the Bonferroni t-test comparisons. All data are expressed as mean±SEM. P<0.05 was considered significant.", "key": {"[1]": {"conditions": "SNI rats, 150 mg/kg by gavage at 6 am and 6 pm"}}, "data": [{"compound": "CC(=O)N(CCN(c1ccc(F)cc1)c1cccc(Br)c1)C(=O)OCOC(=O)CN.Cl", "note": "[Prodrug D, ((acetyl(2-((3-bromophenyl)(4-fluorophenyl)amino)ethyl)carbamoyl)oxy)methyl 2-aminoacetate hydrochloride]", "values": [{"measurement": "NREM 24 h, mean difference (Bonferroni's multiple comparison test)", "setting": "Control vs SNI + Prodrug D", "result": "−236.5"}, {"measurement": "REM 24 h, mean difference (Bonferroni's multiple comparison test)", "setting": "Control vs SNI + Prodrug D", "result": "−107"}, {"measurement": "Wake 24 h, mean difference (Bonferroni's multiple comparison test)", "setting": "Control vs SNI + Prodrug D", "result": 343.4}, {"measurement": "SFI (sleep fragmentation index), mean difference (Bonferroni's multiple comparison test)", "setting": "Control vs SNI + Prodrug D", "result": 0.2758}, {"measurement": "REM time, NREM time and time in wakefulness during 24 h", "setting": "[1]", "result": "restore all the three parameters"}, {"measurement": "sleep fragmentation index (SFI)", "setting": "[1]", "result": "reverse the fragmentation"}, {"measurement": "NREM 24 h, mean difference (Bonferroni's multiple comparison test)", "setting": "Sham vs SNI + Prodrug D", "result": "−62.39"}, {"measurement": "REM 24 h, mean difference (Bonferroni's multiple comparison test)", "setting": "Sham vs SNI + Prodrug D", "result": "−44.39"}, {"measurement": "Wake 24 h, mean difference (Bonferroni's multiple comparison test)", "setting": "Sham vs SNI + Prodrug D", "result": 106.8}, {"measurement": "SFI (sleep fragmentation index), mean difference (Bonferroni's multiple comparison test)", "setting": "Sham vs SNI + Prodrug D", "result": 0.01886}]}]}
